Measurements reported in ChEMBL document CHEMBL3046802, “7-Piperazinylquinolones with methylene-bridged nitrofuran scaffold as new antibacterial agents” (2013).
Converted amounts (≈) assume the structure as drawn.

How the values were obtained:
Assay type in all cases: functional
Klebsiella pneumoniae = test: Antibacterial activity against Klebsiella pneumoniae ATCC 10031 after 18 hrs by agar dilution method; details: ATCC 10031, 18 h
Pseudomonas aeruginosa = test: Antibacterial activity against Pseudomonas aeruginosa ATCC 9027 after 18 hrs by agar dilution method; details: ATCC 9027, 18 h
Bacillus subtilis = test: Antibacterial activity against Bacillus subtilis ATCC 6633 after 18 hrs by agar dilution method; details: ATCC 6633, 18 h
[1] = tested on: Staphylococcus epidermidis; test: Antibacterial activity against Staphylococcus epidermidis ATCC 12228 after 18 hrs by agar dilution method; details: ATCC 12228, 18 h
Staphylococcus aureus = test: Antibacterial activity against Staphylococcus aureus ATCC 6538 after 18 hrs by agar dilution method; details: ATCC 6538, 18 h
Escherichia coli = test: Antibacterial activity against Escherichia coli ATCC 8739 after 18 hrs by agar dilution method; details: ATCC 8739, 18 h

| Structure (SMILES) | MIC (Klebsiella pneumoniae) | MIC (Pseudomonas aeruginosa) | MIC (Bacillus subtilis) | MIC [1] | MIC (Staphylococcus aureus) | MIC (Escherichia coli) |
| --- | --- | --- | --- | --- | --- | --- |
| O=C(O)c1cn(C2CC2)c2cc(N3CCNCC3)c(F)cc2c1=O [CIPROFLOXACIN] | 0.049 µg/mL (≈ 0.148 µM) | 0.39 µg/mL (≈ 1.18 µM) | 0.195 µg/mL (≈ 0.589 µM) | 0.195 µg/mL (≈ 0.589 µM) | 0.195 µg/mL (≈ 0.589 µM) | 0.097 µg/mL (≈ 0.293 µM) |
| CCn1cc(C(=O)O)c(=O)c2cc(F)c(N3CCNCC3)nc21 [ENOXACIN] | 0.78 µg/mL (≈ 2.44 µM) | 1.56 µg/mL (≈ 4.87 µM) | 0.195 µg/mL (≈ 0.609 µM) | 0.78 µg/mL (≈ 2.44 µM) | 0.39 µg/mL (≈ 1.22 µM) | 0.39 µg/mL (≈ 1.22 µM) |
| COc1c(N2CCNC(C)C2)c(F)cc2c(=O)c(C(=O)O)cn(C3CC3)c12 (stereo unspecified) [GATIFLOXACIN] | 0.195 µg/mL (≈ 0.519 µM) | 0.78 µg/mL (≈ 2.08 µM) | 0.78 µg/mL (≈ 2.08 µM) | 0.78 µg/mL (≈ 2.08 µM) | 0.78 µg/mL (≈ 2.08 µM) | 1.56 µg/mL (≈ 4.16 µM) |
| C[C@H]1COc2c(N3CCN(C)CC3)c(F)cc3c(=O)c(C(=O)O)cn1c23.C[C@H]1COc2c(N3CCN(C)CC3)c(F)cc3c(=O)c(C(=O)O)cn1c23.O [LEVOFLOXACIN] | 0.39 µg/mL | 3.13 µg/mL | 0.78 µg/mL | 0.39 µg/mL | 0.39 µg/mL |  |
| C[C@H]1COc2c(N3CCNCC3)c(F)cc3c(=O)c(C(=O)O)cn1c23 [N-DESMETHYL LEVOFLOXACIN] | 0.39 µg/mL (≈ 1.12 µM) | > 6.25 µg/mL | 1.56 µg/mL (≈ 4.49 µM) | 1.56 µg/mL (≈ 4.49 µM) | 3.13 µg/mL (≈ 9.01 µM) |  |
| CCn1cc(C(=O)O)c(=O)c2cc(F)c(N3CCNCC3)cc21 [NORFLOXACIN] | 0.39 µg/mL (≈ 1.22 µM) | 1.56 µg/mL (≈ 4.89 µM) | 0.195 µg/mL (≈ 0.611 µM) | 0.39 µg/mL (≈ 1.22 µM) | 0.39 µg/mL (≈ 1.22 µM) | 0.195 µg/mL (≈ 0.611 µM) |

Other lines, results leading:

| MIC (Klebsiella pneumoniae) | MIC (Pseudomonas aeruginosa) | MIC (Bacillus subtilis) | MIC [1] | MIC (Staphylococcus aureus) | MIC (Escherichia coli) | Structure (SMILES) |
| --- | --- | --- | --- | --- | --- | --- |
| 6.25 µg/mL (≈ 14.1 µM) | 25 µg/mL (≈ 56.3 µM) | 12.5 µg/mL (≈ 28.1 µM) | 3.13 µg/mL (≈ 7.04 µM) | 1.56 µg/mL (≈ 3.51 µM) | 6.25 µg/mL (≈ 14.1 µM) | CCn1cc(C(=O)O)c(=O)c2cc(F)c(N3CCN(Cc4ccc([N+](=O)[O-])o4)CC3)cc21 |
| 0.39 µg/mL (≈ 0.854 µM) | 3.13 µg/mL (≈ 6.86 µM) | 0.78 µg/mL (≈ 1.71 µM) | 1.56 µg/mL (≈ 3.42 µM) | 0.39 µg/mL (≈ 0.854 µM) | 1.56 µg/mL (≈ 3.42 µM) | O=C(O)c1cn(C2CC2)c2cc(N3CCN(Cc4ccc([N+](=O)[O-])o4)CC3)c(F)cc2c1=O |
| 1.56 µg/mL (≈ 3.12 µM) | 6.25 µg/mL (≈ 12.5 µM) | 3.13 µg/mL (≈ 6.25 µM) | 1.56 µg/mL (≈ 3.12 µM) | 0.78 µg/mL (≈ 1.56 µM) | 3.13 µg/mL (≈ 6.25 µM) | COc1c(N2CCN(Cc3ccc([N+](=O)[O-])o3)C(C)C2)c(F)cc2c(=O)c(C(=O)O)cn(C3CC3)c12 (stereo unspecified) |
| 3.13 µg/mL (≈ 7.03 µM) | 12.5 µg/mL (≈ 28.1 µM) | 6.25 µg/mL (≈ 14 µM) | 3.13 µg/mL (≈ 7.03 µM) | 0.39 µg/mL (≈ 0.876 µM) | 6.25 µg/mL (≈ 14 µM) | CCn1cc(C(=O)O)c(=O)c2cc(F)c(N3CCN(Cc4ccc([N+](=O)[O-])o4)CC3)nc21 |
| 1.56 µg/mL (≈ 3.3 µM) | 12.5 µg/mL (≈ 26.5 µM) | 0.78 µg/mL (≈ 1.65 µM) | 0.39 µg/mL (≈ 0.826 µM) | 1.56 µg/mL (≈ 3.3 µM) | 0.78 µg/mL (≈ 1.65 µM) | C[C@H]1COc2c(N3CCN(Cc4ccc([N+](=O)[O-])o4)CC3)c(F)cc3c(=O)c(C(=O)O)cn1c23 |
| 12.5 µg/mL (≈ 26.8 µM) | 50 µg/mL (≈ 107 µM) | 3.13 µg/mL (≈ 6.71 µM) | 3.13 µg/mL (≈ 6.71 µM) | 3.13 µg/mL (≈ 6.71 µM) | 3.13 µg/mL (≈ 6.71 µM) | O=C(O)c1cn(C2CC2)c2cc(N3CCN(Cc4ccc([N+](=O)[O-])cc4)CC3)c(F)cc2c1=O |
| 6.25 µg/mL (≈ 13.1 µM) | 25 µg/mL (≈ 52.5 µM) | 0.097 µg/mL (≈ 0.204 µM) | 3.13 µg/mL (≈ 6.57 µM) | 1.56 µg/mL (≈ 3.27 µM) | 0.39 µg/mL (≈ 0.819 µM) | CCn1cc(C(=O)O)c(=O)c2cc(F)c(N3CCN(Cc4ccc([N+](=O)[O-])o4)C(C)C3)c(F)c21 (racemic) |
